In experiment [1] the test system is Cellular Retinoic Acid Binding Protein 2 (CRABP-2) in human adult fibroblasts. Briefly: CRABP-2 production by fibroblasts (Western blot). In kind it is cell-based. Conditions: 10e-6M retinoid alone, 48 hours. Here is the method:
This example investigated the effect of various tested compounds on CRABP-2 production by fibroblasts.
Human adult fibroblasts obtained from su n-protected inner arm of 25-30 year […] volunteer were used in this. Cells were grown in 1:1 DMEM/Hams F12 media containing 10% FBS, maintained at 37° C. in a 5% CO2 atmosphere under normal atmospheric oxygen tension. Third passage adult fibroblasts were grown in DMEM media with 10% FBS in 12-well plates at a seeding density of 2500 cells/ml/well. The cells at 80% confluence were rinsed in serum free and phenol red free (PRF) DMEM media twice. Pre-treatment with test compound for 4 hours was conducted and then dosed with retinoids and was incubated for 48 hours.
After the incubation, the wells were was ed twice with 1X PBS and the cell monolayer was harvested in 100 μl cell lysis buffer (contains 1X PBS, 1% TritonX, 0.5% sodium deoxycholate, 0.1% SDS containing p tease inhibitor (10 mg/ml PMSF in isopropanol, 10 μl/ml). The suspension was spun at 14000 rpm for 10 minutes, the supernatant collected and an aliquot of this supematant was used for protein quantification. Protein concentration was determined using Pierce protein kit. The remainder of 100 μl supernatant (cell lysate) was denatured in a mixture of 40 μl sample buffer (NOVEX) and 0.5% Beta mercaptoethanol (IBME) and by boiling the sample for 5 minutes. Equal amount of protein was then loaded onto 16% Tris-glycine gels for protein analysis by SDS page and Western Immuno-blotting for CRABP-2 protein expression.
The gels were run and transferred to nitrocellulose blots and Western Blotting was carried out using monoclonal antibodies to CRABP-2 according to standard procedures. The CRABP-2 protein band was visualized in the Western Blots using the chemiluminescence system obtained from Santa Cruz Biotechnology (SantaCruz, Calif.). The bands in the film were quantitated by densitometric scanning, the-data from triplicate samples were calculated as % of control and expressed in the following tables as % increase over control (with control as 100%) +/−SD of triplicates.

Experiment [2] relates to Neonatal human dermal fibroblasts. The experiment in a line: Procollagen I production by fibroblasts (dot blot). In kind it is cell-based. Conditions: 50 μg; for Procollagen 1 production: densitometer reading. Here is the method:
This example measured production of procollagen I by fibroblasts in response to treatment with various test compounds.
Methodology for determination of (Pro) Collagen-I protein expression using Dot Blot technique:
Neonatal human dermal fibroblasts (passage 4 to 8) were purchased from Clonetics Corp. San Diego, Calif. All materials for cell culture were purchased from Life technologies, New York and used in passages 5-10. Cells were seeded at a density of approximately 7,500/well in the inner 48 wells of a 96-well plate in DMEM (Dulbecco's Modified Eagle's Medium), high glucose supplemented with 2 mM L-glutamine, 10% fetal bovine serum, and antibiotic and. antimycotic solutions. Cells were grown to confluence and washed with serum free, phenol red free DMEM and cells dosed with 200 μl actives in media. Each dosing was replicated in a total of six to twelve wells. After 24 hours, the test compound solution or the control solution was removed and cells re-dosed with 100 μl actives in media. After 24 hours incubation, remove media and store at 4° C. with protease inhibitor (Aprotinin 1:200) until further use. The test compound solution was then diluted in 1X Tris buffered saline (pH=8) buffer (approximately 20 μl media in 200 μl buffer).
PVDF membrane soaked in methanol and 2 filter papers in 1X TBS (pH=8). Bio-Rad dot blot apparatus was set up with filter paper on bottom, membrane on top, tighten, added 100 μl TBS per well. Vacuum dry. Vortex or mix, then load 100 μl diluted sample per well; let it sit for 15 minutes and then vacuum dry. Remove membrane from the apparatus, cut off excess, and notch bottom right comer for orientation. Place membrane in blocking buffer (5% milk powder in 1X TBS-Tween) for 1 hour at room temperature with shaking. […] Remove membrane, do a 10 minute wash three to five times in TBS/0.1% Tween. Incubate for 1 hour at RT or O/N at 4° C. in 5 ml 1:1000 anti-rat conjugated alkaline phosphatase (AP) secondary antibody in 1-% milk in TBS-T in a sealed bag with shaking. Wash membrane for 15 minutes five to eight times with TBS-T, and final rinse with 1X PBS. The membrane was developed using Chemiluminiscent substrate (Boehringer Mannheim, Ind.) and results were analysed using a laser densitometer (Bio-Rad instrument). Fold increase was calculated as a ratio of densitometer reading for cells treated with a test compound over control.

Experiment [3] deals with ZR75 cells. Briefly: Assay for estrogen like activity: [methyl-3H] thymidine incorporation in ZR75 cells. The class given is cell-based, human. Conditions: 0.27 × 10^−6% (10 nM). The source says: The ZR75 cell line is a ductal breast carcinoma cell line, originally isolated from malignant mammary epithelium of a person (10). The chromosome number is triploid and the trypsin-Giemsa banding patterns indicate a unique karyotype distinct from HeLa cells. While containing receptors for estrogen, insulin, progesterone and other hormones, ZR75 cells only respond through an increase in proliferation to estrogen and insulin. The cell line contains high affinity estrogen-specific receptors. Therefore, this cell line is used for testing estrogen-like activity.
The cells are split 1:2 once every week and seeded in 24 well plates at one hundred thousand cells per milliliter per well for the assay.
After growing for twenty-four hours, the media was removed, the cells were washed with PBS and one ml of RPMI 1640 without serum was readded. Different dilutions of the red yeast rice extract were then dosed directly into each well. After another twenty-four hours, one microCurie of [methyl-3H] thymidine was added to the media in each well. The media was removed after twenty-four hours to begin the thymidine uptake assay. […] The samples were transferred to scintillation vials and after adding five milliliters of counting fluid (scintiverse), the vials were counted for five minutes each on a setting for tritium. […] Data was calculated as % of control to normalize for experiment-to-experiment variation.

For experiment [4], the system named is human sebocytes. The experiment in a line: Sebum secretion by sebocytes (14C-acetate incorporation). The conditions noted are these: 0.001%. In kind it is cell-based. Here is the method:
This example investigated the effect of red yeast rice on sebum secretion by sebocytes. Secondary cultures of human sebocytes obtained from an adult […] were grown in 48-well tissue culture plates (Costar Corp.; Cambridge, Mass.) until confluent. Sebocyte growth medium consisted of Clonetics Keratinocyte Basal Medium (KBM) supplemented with 14 μg/ml bovine pituitary extract, 0.4 μg/ml hydrocortisone, 5 μg/ml insulin, 10 ng/ml epidermal growth factor, 1.2×10−10 M cholera toxin, 100 units/ml penicillin, and 100 μg/ml streptomycin. All cultures were incubated at 37° C. in the presence of 7.5% CO2. Medium was changed three times per week. On the day of experimentation, the growth medium was removed and the sebocytes washed three times with sterile Dulbecco's Modified Eagle Medium (DMEM; phenol red free). Fresh DMEM was added to each sample (triplicates in Table 4 and duplicated in Table 5) with 5 microliter of test agent solubilized in ethanol. Controls consisted of addition of ethanol alone. Each plate was returned to the incubator for 20 hours followed by the addition of 14C-acetate buffer (5 mM final concentration, 56 mCi/mmol specific activity). […] Radioactive label remaining in the sebocytes was harvested and counted using a Beckman scintillation counter. […]

Consider nine compounds from US6395281B1, “Cosmetic skin conditioning compositions containing red yeast rice extract” (Unilever Home & Personal Care USA, a division of Conopco, …, priority 1999, dated 2002).

Regarding `CC1=C(/C=C/C(C)=C/C=C/C(C)=C/CO)C(C)(C)CCC1` [Retinol], in experiment [1], the “CRABP-2 % of Control” value is 153 +/− 5% and the “CRABP-2 OD +/− SD” value was 1.91 +/− 0.06 OD.
As for `O=C1O[C@H]([C@@H](O)CO)C(O)=C1O` [Vitamin C], in experiment [2], the “Procollagen 1 production % of Control” value is 175 +/− 37% and the “Procollagen 1 production” value was 1.311 +/− 0.28.
Regarding `CC(=O)OC/C=C(C)/C=C/C=C(C)/C=C/C1=C(C)CCCC1(C)C` [Retinyl Acetate], in experiment [1], the “CRABP-2 % of Control” value was 398 +/− 157% and the “CRABP-2 OD +/− SD” value is 3.86 +/− 0.28 OD.
Consider `CCCCCCCCCCCCCCCC(=O)OC[C@H](O)[C@H]1OC(=O)C(O)=C1O` [Ascorbyl Palmitate, ascorbyl palmitate], for which, in experiment [2], the “Procollagen 1 production % of Control” value is 103 +/− 48% and the “Procollagen 1 production” value is given as 0.775 +/− 0.36.
In the case of `C[C@]12CC[C@@H]3c4ccc(O)cc4CC[C@H]3[C@@H]1CC[C@@H]2O` [Estradol, estradiol], the “cpm +/− SD (thymidine incorporation)” value in experiment [3] is 263982 +/− 711 cpm. In addition, the activity at 0.01 µM in experiment [3] (Homo sapiens, ZR75, read-out: thymidine incorporation % of control) was determined as 224%.
As to `CCCCC/C=C\C/C=C\CCCCCCCC(=O)OC/C=C(C)/C=C/C=C(C)/C=C/C1=C(C)CCCC1(C)C` [Retinyl linoleate], in experiment [1], the “CRABP-2 % of Control” value is on record as 156 +/− 13% and the “CRABP-2 OD +/− SD” value is listed as 1.96 +/− 0.16 OD.
In the case of `O=C1O[C@H]([C@@H](O)CO)C([O-])=C1OP(=O)([O-])[O-].[Na+].[Na+].[Na+]` [Sodium ascorbyl phosphate, sodium ascorbyl phosphate], in experiment [2], the “Procollagen 1 production % of Control” value was 116 +/− 27% and the “Procollagen 1 production” value is 0.871 +/− 0.2.
In the case of `O=S1(=O)OC(c2ccc(O)cc2)(c2ccc(O)cc2)c2ccccc21` [Phenol Red], the “% Reduction (sebum, 14C-acetate label)” value was found to be 83.4% in experiment [4] (first Table 4 (triplicates)) and 83.4% in experiment [4] (second table, printed as Table 4 (Table 5, duplicates)).
`CCCCCCCCCCCCCCCC(=O)OC/C=C(C)/C=C/C=C(C)/C=C/C1=C(C)CCCC1(C)C` [Retinyl palmitate]: in experiment [1], the “CRABP-2 % of Control” value was 178 +/− 33% and the “CRABP-2 OD +/− SD” value is given as 2.00 +/− 0.04 OD.
